Reference: patent US10464907B2, “Compound having HSP90 inhibitory activity or pharmaceutically acceptable salt thereof, and medical use thereof” (priority 2016, dated 2019)
Like-named read-outs stand apart in the source and are kept apart here.

Columns and labels:
H1975 = experiment: MTS cell proliferation / survival assay; format: cell-based; conditions: Homo sapiens; for inhibition at 10 µM: NCI-H1975, read-out: Inhibition rate at 10 μM (%); for inhibition at 30 µM: NCI-H1975, read-out: Inhibition rate at 30 μM (%)
Protocol: Sk-Br3 (Korean cell line bank), a breast cancer cell, and H1975 cell (ATCC), a nonsmall cell lung cancer, were cultured in RPMI 1640 containing 25 mM HEPES (4-(2-hydroxyethyl)-1-piperazineethanesulfonic acid) and RPMI 1640 containing L-glutamine (containing streptomycin ([…]), penicillin (100 units/mL) and 10% fetal bovine serum (FBS)).
The cells were cultured under a humidified atmosphere of 37° C. and 5% CO2.
Next, non-metastatic lung cancer cells were treated with Compound 17 and the cell proliferation rate or cell survival rate was measured by MTS [3-(4,5-dimethylthiazol-2-yl)-5-(3-carboxymethoxyphenyl)-2-2H-tetrazolium, inner salt] analysis.
Cells were dispensed in 96-well plates at 3000 cell/well (Sk-Br3) and 2000 cell/well (H1975), and 100 μL of the medium was added per well and then was incubated overnight.
Cell proliferation was evaluated using the Promega Cell Titer 96 Aqueous One Solution cell proliferation assay.
After compound and cell culture, 20 μL of assay substrate solution was added to each well and incubated at 37° C. for an additional 1 hour.
Cell proliferation was confirmed by measuring the absorbance at 490 nm using a microplate reader (Tecan Infinite F200 Proplate reader).

LogP = format: physicochemical; conditions: called measured values of LogP
Protocol: All experimental data were analyzed using Prism software (version 5.0, Graphpad Software, San Diego, Calif.). In addition, tPSA (Topological Polar Surface Area) calculated using Chemdraw software and the measured values of LogP are shown in Tables 1 and 2 below.

H1975 cells = experiment: MTS cell viability in H1975 cells resistant to Gefitinib; format: cell-based; conditions: read-out: H1975 (EC50; μM)
Protocol: To confirm the cell viability according to the concentration of the compound synthesized in H1975 cells (ATCC) resistant to Gefitinib, MTS [3-(4,5-dimethylthiazol-2-yl)-5-[…]carboxymethoxyphenyl)-2-(4-sulfophenyl)-2H-tetrazolium, inner salt] analysis was performed. When the cells were cultured so as to occupy 80% of the bottom of the culture dish, the cells were detached and diluted with RPMI 1640 medium to a concentration of 1.5×10^3 cells/well. Each 100 μL of the suspension was added to each well of a 96-well plate and cultured for 14 hours. Then, the medium was changed to the culture solution treated with compound of each concentration each concentration (1a-g: 0, 1, 5, 10, 30, 50 or 100 μM, 14a-I, 16a, b, 21a-f: 0, 0.01, 0.1, 1, 5, 10, 30, 50, 70 or 100 μM), and cultured for 3 days. Each 20 μL of the MTS solution was dispensed into each well and reacted for 1 hour at 37° C. in an incubator supplied with 5% CO2.

HSP90α = HSP90α (Homo sapiens (Human), UniProt P07900); experiment: Fluorescence polarization assay, binding ability to HSP90, benzamide compounds; conditions: GA-FITC 100 nM; read-out: HSP90 FP) (IC50; nM)
Protocol: 1 M dithiothreitol (DTT), 10 mg/m: BGG (bovine gamma globulin) were added to hexafluorobenzene (HFB) buffer (20 mM HEPES pH 7.3, 50 mM KCl, 5 mM MgCl2, 20 mM Na2MoO4, 0.01% NP4O, 3rd distilled water) and mixed. Then, 100 nM […] (GA)-FITC (Fluorescein isothiocyanate) was added and reacted at room temperature for 10 minutes. Each 100 μL of the mixture was dispensed into the control wells of a 96-well plate, 2 μL of HSP90α was added to the remaining mixture, and each 100 μL of the other wells was dispensed. […] The binding ability of the compound to HSP90 was expressed as mP (millipolarization unit=1000 mP unit).

Row | Structure (SMILES) | logP (LogP) | EC50 (H1975 cells; Homo sapiens, NCI-H1975, 72 h) [µM] | IC50 (HSP90α) [nM] | other results
1 | O=C(c1cc(Cl)c(O)cc1O)N1CCCC1 [Compound 11a, (5-chloro-2,4-dihydroxyphenyl) (pyrrolidin-1-yl)methanone] | 1.13 |  |  | inhibition at 10 µM (H1975): 8.1%; inhibition at 30 µM (H1975): 22.1%
2 | O=C(c1cc(Cl)c(O)cc1O)N1CCCCC1 [Compound 11b, (5-chloro-2,4-dihydroxyphenyl) (piperidin-1-yl)methanone] | 1.69 |  |  | inhibition at 10 µM (H1975): 7.6%; inhibition at 30 µM (H1975): 26.3%
3 | O=C(c1cc(Cl)c(O)cc1O)N1CCOCC1 [Compound 11c, (5-chloro-2,4-dihydroxyphenyl) (morpholino)methanone] | 0.66 |  |  | inhibition at 10 µM (H1975): 24.3%; inhibition at 30 µM (H1975): 44%
4 | O=C(c1cc(Cl)c(O)cc1O)N1CCNCC1 [Compound 11d, (5-chloro-2,4-dihydroxyphenyl) (piperazin-1-yl)methanone] | 0.65 |  |  | inhibition at 10 µM (H1975): 0%; inhibition at 30 µM (H1975): 0%
5 | CN1CCN(C(=O)c2cc(Cl)c(O)cc2O)CC1 [Compound 11e, (5-chloro-2,4-dihydroxyphenyl)(4-methylpiperazin-1-yl)methanone] | 1.23 |  |  | inhibition at 10 µM (H1975): 26.3%; inhibition at 30 µM (H1975): 48.7%
6 | CC(=O)N1CCN(C(=O)c2cc(Cl)c(O)cc2O)CC1 [Compound 11f, 1-(4-(5-chloro-2,4-dihydroxybenzoyl)piperazin-1-yl)ethanone] | 0.25 |  |  | inhibition at 10 µM (H1975): 0%; inhibition at 30 µM (H1975): 10.5%
7 | O=C1CN(C(=O)c2cc(Cl)c(O)cc2O)CCN1 [Compound 11g, 4-(5-chloro-2,4-dihydroxybenzoyl)piperazin-2-one] | 0.45 |  |  | inhibition at 10 µM (H1975): 0%; inhibition at 30 µM (H1975): 0%
8 | O=C1CCN(C(=O)c2cc(Cl)c(O)cc2O)C1 [Compound 11h, 1-(5-chloro-2,4-dihydroxybenzoyl) pyrrolidin-3-one] | 0.84 |  |  | inhibition at 10 µM (H1975): 0%; inhibition at 30 µM (H1975): 0%
9 | O=C1CCN(C(=O)c2cc(Cl)c(O)cc2O)CC1 [Compound 11i, 1-(5-chloro-2,4-dihydroxybenzoyl)piperidin-4-one] | 0.6 |  |  | 
10 | CN1CCN(C(=O)c2cc(Cl)c(O)cc2O)C(c2ccccc2)C1 (centres unmarked) [Compound 11j, (5-chloro-2,4-dihydroxyphenyl)(4-methyl-2-phenylpiperazin-1-yl)methanone] | 3.22 |  |  | 
11 | O=C(NCc1ccccc1)c1cc(Cl)c(O)cc1O [Compound 14a, N-Benzyl-5-chloro-2,4-dihydroxybenzamide] |  | 86.2 |  | 
12 | CN(Cc1ccccc1)C(=O)c1cc(Cl)c(O)cc1O [Compound 14b, N-Benzyl-5-chloro-2,4-dihydroxy-N-methylbenzamide] |  | 35.5 | 413 | 
13 | COc1ccc(CN(C)C(=O)c2cc(Cl)c(O)cc2O)cc1 [Compound 14c, 5-chloro-2,4-dihydroxy-N-(4-methoxybenzyl)-N-methylbenzamide] |  | 16.7 | 135 | 
14 | COc1ccc(CN(C)C(=O)c2cc(Cl)c(O)cc2O)cc1OC [Compound 14d, 5-chloro-N-(3,4-dimethoxybenzyl)-2,4-dihydroxy-N-methylbenzamide] |  | 33.4 | 362 | 
15 | CN(Cc1ccc2c(c1)OCO2)C(=O)c1cc(Cl)c(O)cc1O [Compound 14e, N-(benzo[d][1,3]dioxol-5-ylmethyl)-5-chloro-2,4-dihydroxy-N-methylbenzamide] |  | 103 | 585 | 
16 | COc1cc(CN(C)C(=O)c2cc(Cl)c(O)cc2O)cc(OC)c1OC [Compound 14f, 5-chloro-2,4-dihydroxy-N-methyl-N-(3,4,5-trimethoxybenzyl) benzamide] |  |  | 1460 | EC50 (H1975 cells; H1975, 3 days): 73.1 µM
17 | COc1cc(CN(C)C(=O)c2cc(Cl)c(O)cc2O)c(Cl)c(OC)c1OC [Compound 14g, 5-chloro-N-(2-chloro-3,4,5-trimethoxybenzyl)-2,4-dihydroxy-N-methylbenzamide] |  | 33.8 | 429 | 
18 | COc1cc(CN(C)C(=O)c2cc(Cl)c(O)cc2O)c(Br)c(OC)c1OC [Compound 14h, N-(2-bromo-3,4,5-trimethoxybenzyl)-5-chloro-2,4-dihydroxy-N-methylbenzamide] |  | 34.3 | 528 | 
19 | Cc1cccc(CN(C)C(=O)c2cc(Cl)c(O)cc2O)c1 [Compound 14i, 5-chloro-2,4-dihydroxy-N-methyl-N-(3-methylbenzyl)benzamide] |  | 47.5 |  | 
20 | Cc1ccccc1CN(C)C(=O)c1cc(Cl)c(O)cc1O [Compound 16a, 5-chloro-2,4-dihydroxy-N-methyl-N-(2-methylbenzyl)benzamide] |  | 49.3 |  | 
21 | Cc1ccc(CN(C)C(=O)c2cc(Cl)c(O)cc2O)cc1 [Compound 16b, 5-chloro-2,4-dihydroxy-N-methyl-N-(4-methylbenzyl)benzamide] |  | 34.3 | 558 | 
22 | CNC(=O)c1ccc(CN(C)C(=O)c2cc(Cl)c(O)cc2O)cc1 [Compound 21a, 5-chloro-2,4-dihydroxy-N-methyl-N-(4-(methylcarbamoyl)benzyl) benzamide] |  |  | 496 | EC50 (H1975 cells; H1975, 3 days): 34.8 µM
23 | CCNC(=O)c1ccc(CN(C)C(=O)c2cc(Cl)c(O)cc2O)cc1 [Compound 21b, 5-chloro-N-(4-(ethylcarbamoyl)benzyl)-2,4-dihydroxy-N-methylbenzamide] |  | 21.7 | 612 | 
24 | CCCNC(=O)c1ccc(CN(C)C(=O)c2cc(Cl)c(O)cc2O)cc1 [Compound 21c, 5-chloro-2,4-dihydroxy-N-methyl-N-(4-(propylcarbamoyl)benzyl)benzamide] |  | 20.8 | 454 | 
25 | CNC(=O)c1ccc(CN(C)C(=O)c2cc(C(C)C)c(O)cc2O)cc1 [Compound 21d, 2,4-dihydroxy-5-isopropyl-N-methyl-N-(4-(methylcarbamoyl)benzyl) benzamide] |  |  | 11.4 | EC50 (H1975 cells; H1975, 3 days): 0.83 µM
26 | CCNC(=O)c1ccc(CN(C)C(=O)c2cc(C(C)C)c(O)cc2O)cc1 [Compound 21e, N-(4-(ethylcarbamoyl)benzyl)-2,4-dihydroxy-5-isopropyl-N-methylbenzamide] |  | 0.46 | 6.5 | 
27 | CC(C)c1cc(C(=O)N(C)Cc2ccccc2)c(O)cc1O [Compound 21g, N-benzyl-2,4-dihydroxy-5-isopropyl-N-methylbenzamide] |  | 4.1 |  | 
